Assay results taken from publication PMC8126888 (RSC Medicinal Chemistry, 2020).
Like-named read-outs stand apart in the source and are kept apart here.

Legend:
[1] = system: primary peritoneal mouse macrophages (PMM); assay: cells; settings: Macrophage, read-out: PMM IC50 (uM)
in vitro [2] = settings: human, microsomes, pH 7.4, HLM CLint (uL/min/mg), human liver microsomes
in vitro [3] = settings: mouse, microsomes, pH 7.4, MLM CLint (uL/min/mg), mouse liver microsomes
physchem = settings: HPLC, Ascentis Express RP Amide column, pH 7.4, eLogD, experimental
in vitro [4] = settings: human
in vitro [5] = settings: human, HFF-1 cells
in vitro [6] = settings: human, HepG2 cells
in vitro [7] = settings: PAMPA
[8] = system: Leishmania infantum MHOM/MA(BE)/67/ITMAP263 intracellular amastigotes; assay: microbe, parasite or virus in culture; settings: Macrophage, in Mus musculus
[9] = system: Trypanosoma cruzi, Tulahuen CL2, beta-galactosidase strain; assay: microbe, parasite or virus in culture; settings: MRC5, read-out: T. cruzi Tulahuen C4 (LacZ) IC50 (uM)
[10] = read-out: L. Inf. pIC50, from L. infantum intracellular amastigote IC50 (converted)
[11] = read-out: L. infantum MHOM/MA(BE)/67/ITMAP263 intracellular amastigotes IC50 (uM), intracellular amastigotes

Structure (SMILES)	IC50 [1] [µM]	microsomal CLint at 0.5 μM (in vitro [2]) [µL/min/mg]	microsomal CLint at 0.5 μM (in vitro [3]) [µL/min/mg]	chromatographic logD (physchem)	CC50 at 3 days (in vitro [4]) [µM]	CC50 (in vitro [5]) [µM]	CC50 (in vitro [6]) [µM]	Papp (in vitro [7]) [×10⁻⁶ cm/s]	IC50 [8, 10] [µM]	IC50 [8, 11] [µM]	IC50 [9] [µM]
COc1ccc(-c2nc(C)no2)cc1S(=O)(=O)N(Cc1ccc(F)cc1)Cc1ccc(F)cc1 [DNDI0003388085]	> 64	177	739	4.6	> 64	38.6	> 64	1.74	5.62	5.68	> 64
COc1ccc(C(=O)N(C)CCO)cc1S(=O)(=O)N(Cc1ccc(F)cc1)Cc1ccc(F)cc1 [DNDI0003371175]	> 64	498	605	3.8	> 64	60.2	57.6	11.2	2.09	2.08	25.3
COc1ccc(N2CCOCC2)cc1S(=O)(=O)N(Cc1ccc(F)cc1)Cc1ccc(F)cc1 [DNDI0003389118]	> 64	82	488	4.3	> 64	15.2	> 64	2.55	0.324	0.32	7.91
COc1ccc(CN2CCC(F)(F)CC2)cc1S(=O)(=O)N(Cc1ccc(F)cc1)Cc1ccc(F)cc1 [DNDI0003389116]	45.2	984	1760	4.8	> 64	18.2	> 64	0.4	3.16	3.18	2.93
O=S(=O)(c1cc(N2CCOCC2)ccc1OC(F)F)N(Cc1ccc(F)cc1)Cc1ccc(F)cc1 [DNDI0003389647]	45.2	153	462	4.8	> 64	37.6	> 64	0.12	0.501	0.5	5.62
COc1ccc(C(=O)NCCO)cc1S(=O)(=O)N(Cc1ccc(F)cc1)Cc1ccc(F)cc1 [DNDI0003371176]	> 64	131	410	3.8	> 64	> 64	> 64	5.78	2.51	2.53	44.3
COc1ccc(C(=O)N2CCOCC2)cc1S(=O)(=O)N(Cc1ccc(F)cc1)Cc1ccccc1Cl [DNDI0003389128]	> 64	351	1660	4.1	36.8	10.5	> 64	9	1.41	1.4	9.66
COc1ccc(Cl)cc1S(=O)(=O)N(Cc1ccccc1)CC(N)c1ccc(F)cc1 (centres unmarked) [DNDI0003389932]	32	34	239	4.3	14	> 64	19.5	0.59	6.46	6.39	4.64
COc1ccc(OC)c(S(=O)(=O)N(Cc2ccc(F)cc2)C2CCOCC2)c1 [DNDI0003388086]	> 64	49	599	3.7	> 64	> 64	> 64	31.9	> 64	> 64	45
COc1ccccc1S(=O)(=O)N(Cc1ccccc1)CC(O)c1ccc(F)cc1 (centres unmarked) [DNDI0003389317]	> 64	610	1240	4.1	40.7	10.5	> 64	11.8	11.5	11.6	26.6
CN(C)c1ncccc1S(=O)(=O)N(Cc1ccc(F)cc1)Cc1ccc(F)cc1 [DNDI0003389117]	> 64	728	903	4.6	42.7	16.7	56.7	1.18	6.03	5.99	12.6
O=S(=O)(c1cccnc1N1CCOCC1)N(Cc1ccc(F)cc1)Cc1ccc(F)cc1 [DNDI0003389119]	> 64	823	738	4.5	> 64	29.4	> 64	3.63	2.82	2.83	15.1
COc1ccc(CNC2COC2)cc1S(=O)(=O)N(Cc1ccc(F)cc1)Cc1ccc(F)cc1 [DNDI0003389115]	> 64	147	384	4	41.7	51.7	> 64	3.42	1.78	1.79	14.4
COc1ccc(CN(Cc2ccc(F)cc2)S(=O)(=O)c2cc(F)ccc2OCC[N+](C)(C)CC(=O)O)cc1 [DNDI0003389931]	> 64	14	17	3.8	> 64	61.1	> 64	0.36	> 64	> 64	13.1
COc1ccc(S(=O)(=O)N2CCOCC2)cc1C(=O)N(Cc1ccc(F)cc1)Cc1ccc(F)cc1 [DNDI0003389643]	> 64	717	610	3.9	> 64	> 64	> 64	4.14	17	16.9	16.6
CS(=O)(=O)c1ccccc1S(=O)(=O)N(Cc1ccccc1)Cc1ccccc1 [DNDI0003389642]	> 64	248	502	4.1	> 64	38.1	> 64	6.25	32.4	32	24.3
